In EP0907632B1, “INHIBITION OF MATRIX METALLOPROTEASES BY SUBSTITUTED PHENETHYL COMPOUNDS” (Bayer Corporation, priority 1996, dated 1997) one finds Ki data, which are given here for seven compounds.

One assay addresses T1, MMP-3 (Homo sapiens, UniProt P08254).
T1 construct: made in house; host or cells: CHO cells
The class given is biochemical. As to conditions: 6 µM P218 substrate, pH 6.5, 25 min at 37°C; calculated from IC50; read-out: MMP-3 Kf. From the text:
(§1) The P218 quenched fluorescence assay (Microfluorometric Profiling Assay) is a modification of that originally described by Knight, et al., FEBS Lett. 296, 263, 1992 for a related substance and a variety of matrix metalloproteinases (MMPs) in cuvettes. The assay was run with each invention compound and the three MMPs, Mmp-3, MMP-9 and MMP-2, analyzed in parallel, adapted as follows for a 96-well microtiter plate and a Hamilton AT® workstation. P218 Fluorogenic Substrate: P218 is a synthetic substrate containing a 4-acetyl-7-methoxycoumarin (MCA) group in the N-terminal position and a 3-[2, 4-dinitrophenyl]-L-2,3-diaminopropionyl (DPA) group internally. This is a modification of a peptide reported by Knight (1992) that was used as a substrate for matrix metalloproteinases. Once the P218 peptide is cleaved (putative clip site at the Ala-Leu bond), the fluorescence of the MCA group can be detected on a fluorometer with excitation at 328 nm and emission at 393 nm. P218 is currently being produced BACHEM exclusively for Bayer. P218 has the structure: H-MCA-Pro-Lys-Pro-Leu-Ala-Leu-DPA-Ala-Arg-NH2 (MW 1332.2)
Recombinant Human CHO Pro-MMP-3: Human CHO pro-stromelysin-257 (pro-MMP-3) was expressed and purified as described by Housley, et al., J. Biol. Chem. 268, 4481, 1993.
Activation of Pro-MMP-3 Pro-MMP-3 at 1.72 µM (100 µg/mL) in 5 mM Tris at pH 7.5, 5 mM CaCl2, 25 mM NaCl, and 0.005% Brij-35 (MMP-3 activation buffer) was activated by incubation with TPCK (N-tosyl-(L)-phenylalanine chloromethyl ketone) trypsin (1:100 w/w to pro-MMP-3) at 25 °C for 30 min. The reaction was stopped by addition of soybean trypsin inhibitor (SBTI: 5:1 w/w to trypsin concentration). This activation protocol results in the formation of 45 kDa active MMP-3, which still contains the C-terminal portion of the enzyme.
(§2) Hamiltion Microlab AT P!us: The MMP-Profiling Assay is performed robotically on a Hamilton MicroLab AT Plus®. The Hamilton is programmed to: (1) serially dilute up to 11 potential inhibitors automatically from a 2.5 mM stock in 100% DMSO; (2) distribute substrate followed by inhibitor into a 96 well Cytofluor plate; and (3) add a single enzyme to the plate with mixing to start the reaction. Subsequent plates for each additional enzyme are prepared automatically by beginning the program at the substrate addition point, remixing the diluted inhibitors and beginning the reaction by addition of enzyme. In this way, all MMP assays were done using the same inhibitor dilutions.
(§3) Millipore Cytofluor II. Following incubation, the plate was read on a Cytofluor II fluorometric place reader with excitation at 340 nm and emission at 395 nm with the gain set at 80.
(§4) Microfluorometric Reaction Buffer (MRB): Dilution of test compounds, enzymes, and P218 substrate for the microfluorometric assay were made in microfluorometric reaction buffer consisting of 50 mM 2-(N-morpholino)ethanesulfonic acid (MES) at pH 6.5 with 10 mM CaCl2, 150 mM NaCl, 0.005% Brij-35 and 1% DMSO.
(§5) MMP Microfluorometric Profiling Assay. The assay is done with a final substrate concentration of 6 µM P218 and approximately .5 to .8 nM MMP with variable drug concentrations. The Hamilton is programmed to serially dilute up to 11 compounds from a 2.5 mM stock (100% DMSO) to 10x the final compounds concentrations in the assay. Initially, the instrument delivers various amounts of microfluoromentric reaction buffer (MRB) to a 96 tube rack of 1 ml Marsh dilution tubes. The instrument then picks up 20 µl of inhibitor (2.5 mM) from the sample rack and mixes it with a buffer in row A of the Marsh rack, resulting in a 50 µM drug concentration. The inhibitors are then serially diluted to 10, 5, 1, .2, .05 and .01 µM. Position 1 on the sample rack contains only DMSO for the "enzyme-only" wells in the assay, which results in no inhibitor in column 1, rows A through H. The instrument then distributes 107 µl of P218 substrate (8.2 µM in MRB) to a single 96 well cytofluor microtiter plate. […]

Another assay deals with T2, MMP-9 (Homo sapiens, UniProt P14780).
T2 construct: made in house
T2 sequence (P14780 107-707 limits assumed): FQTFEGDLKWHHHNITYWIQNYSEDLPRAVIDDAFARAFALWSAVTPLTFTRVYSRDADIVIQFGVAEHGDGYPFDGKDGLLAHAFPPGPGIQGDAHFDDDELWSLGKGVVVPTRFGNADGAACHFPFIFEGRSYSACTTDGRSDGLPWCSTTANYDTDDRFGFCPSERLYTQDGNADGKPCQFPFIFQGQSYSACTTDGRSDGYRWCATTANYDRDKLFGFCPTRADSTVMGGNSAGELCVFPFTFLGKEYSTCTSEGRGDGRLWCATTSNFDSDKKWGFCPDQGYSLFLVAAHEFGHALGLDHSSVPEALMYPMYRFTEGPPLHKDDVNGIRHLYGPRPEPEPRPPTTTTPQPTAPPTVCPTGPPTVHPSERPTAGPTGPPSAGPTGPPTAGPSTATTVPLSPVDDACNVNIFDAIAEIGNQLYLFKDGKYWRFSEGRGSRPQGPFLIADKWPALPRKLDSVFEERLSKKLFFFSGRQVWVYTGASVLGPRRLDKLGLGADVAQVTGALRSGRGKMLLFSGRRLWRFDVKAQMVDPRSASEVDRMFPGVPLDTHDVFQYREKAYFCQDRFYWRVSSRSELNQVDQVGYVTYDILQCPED
The class given is biochemical. The note with it: 6 µM P218 substrate, pH 6.5, 25 min at 37°C; calculated from IC50; read-out: MMP-9 Kf.
From the text: as §1
Recombinant Human Pro-MMP-9: Human pro-gelatinase B (pro-MMP-9) derived from U937 cDNA as described by Wilhelm, et al. J. Biol. Chem. 264, 17213, 1989 was expressed as the full-length form using a baculovirus protein expression system. The pro-enzyme was purified using methods previously described by Hibbs, et al. J. Biol. Chem. 260, 2493, 1984.
Activation of Pro-MMP-9: […] 20 µg/mL in 50 mM Tris at pH 7.4, 10mM CaCl2, 150 mM NaCl, and 0.005% Brij-35 (MMP-9 activation buffer) was activated by incubation with 0.5 mM p-aminophenylmercuric acetate (APMA) for 3.5 h at 37 °C. The enzyme was dialyzed against the same buffer to remove the APMA.
as §2, §3, §4, §5

Another assay concerns the target T3, MMP-2 (Homo sapiens, UniProt P08253).
T3 sequence (P08253 110-660): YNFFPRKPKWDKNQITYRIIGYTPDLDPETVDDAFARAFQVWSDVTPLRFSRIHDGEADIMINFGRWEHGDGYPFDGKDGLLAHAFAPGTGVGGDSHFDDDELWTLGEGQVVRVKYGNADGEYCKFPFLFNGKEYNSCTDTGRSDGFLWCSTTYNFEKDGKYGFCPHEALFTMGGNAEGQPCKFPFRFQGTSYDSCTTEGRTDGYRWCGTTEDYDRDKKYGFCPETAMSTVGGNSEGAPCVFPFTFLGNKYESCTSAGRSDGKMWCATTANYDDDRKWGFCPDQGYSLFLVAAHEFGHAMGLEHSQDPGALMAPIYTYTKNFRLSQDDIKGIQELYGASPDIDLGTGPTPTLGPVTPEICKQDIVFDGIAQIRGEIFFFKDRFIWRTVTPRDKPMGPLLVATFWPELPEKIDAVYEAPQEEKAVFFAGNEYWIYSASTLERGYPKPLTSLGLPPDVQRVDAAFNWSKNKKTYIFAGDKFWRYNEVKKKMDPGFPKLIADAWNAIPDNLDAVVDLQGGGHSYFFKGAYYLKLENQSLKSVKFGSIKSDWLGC
The assay can be described thus: biochemical.

T1 sequence (P08254 100-477): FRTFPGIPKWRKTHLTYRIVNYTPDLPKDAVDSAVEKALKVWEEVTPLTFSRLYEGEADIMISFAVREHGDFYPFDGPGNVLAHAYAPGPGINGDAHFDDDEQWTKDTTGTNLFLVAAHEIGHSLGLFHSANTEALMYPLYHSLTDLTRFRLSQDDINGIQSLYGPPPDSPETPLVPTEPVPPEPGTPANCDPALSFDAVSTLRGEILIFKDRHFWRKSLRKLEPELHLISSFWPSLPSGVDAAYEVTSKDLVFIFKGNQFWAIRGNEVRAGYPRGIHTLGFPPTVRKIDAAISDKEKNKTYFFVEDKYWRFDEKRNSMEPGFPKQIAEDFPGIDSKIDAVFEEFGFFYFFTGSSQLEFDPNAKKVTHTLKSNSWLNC

Consider `O=C(CC(CCc1ccccc1C(=O)N1CCCCC1)C(=O)O)c1ccc(-c2ccc(Cl)cc2)cc1` (stereo not drawn) [V, 4'-chloro-γ-oxo-α-[2-[2-(1-piperidinylcarbonyl)phenyl]ethyl]-[1,1'-biphenyl]-4-butanoic acid], for which the figures for the Ki at MMP-3, at MMP-9 and at MMP-2 were 0.0547 µM, 0.146 µM and 0.0138 µM, respectively.
On to `O=C(CC(CCc1ccccc1C(=O)NCc1ccccc1)C(=O)O)c1ccc(-c2ccc(Cl)cc2)cc1` (stereo not drawn) [III, 4'-chloro-γ-oxo-α-[2-[2-[[(phenylmethyl)amino]carbonyl]phenyl]ethyl]-[1,1'-biphenyl]-4-butanoic acid], for which the Ki on MMP-3 was 0.174 µM; on MMP-9, 0.475 µM; on MMP-2, 0.0603 µM.
Turning to `O=C(CC(CCc1cccc(C(=O)NCc2ccccc2)c1)C(=O)O)c1ccc(-c2ccc(Cl)cc2)cc1` (stereo not drawn) [XV, 4'-chloro-γ-oxo-α-[2-[3-[[(phenylmethyl)amino]carbonyl]phenyl]ethyl]-[1,1'-biphenyl]-4-butanoic acid], the Ki at MMP-3 is 0.364 µM; on MMP-9, 0.493 µM; on MMP-2, 0.104 µM.
The matching figures for `CC(C)CCNC(=O)c1cccc(CCC(CC(=O)c2ccc(-c3ccc(Cl)cc3)cc2)C(=O)O)c1` (stereo not drawn) [XIV, 4'-chloro-α-[2-[3-[[(3-methylbutyl)amino]carbonyl]phenyl]ethyl]-γ-oxo-[1,1'-biphenyl]-4-butanoic acid]: 0.308 µM, 0.707 µM and 0.11 µM.
Consider `CCOC(=O)CN(C)C(=O)c1cccc(CCC(CC(=O)c2ccc(-c3ccc(Cl)cc3)cc2)C(=O)O)c1` (stereo not drawn) [XVI, 4'-chloro-α-[2-[3-[[(2-ethoxy-2-oxoethyl)methylamino]carbonyl]phenyl]ethyl]-γ-oxo-[1,1'-biphenyl]-4-butanoic acid], for which the Ki at MMP-3 was 0.0248 µM; at MMP-9, 0.137 µM; at MMP-2, 0.00986 µM.
Turning to `O=C(O)CCNC(=O)c1ccccc1CCC(CC(=O)c1ccc(-c2ccc(Cl)cc2)cc1)C(=O)O` (stereo not drawn) [Compound XXII], the Ki at MMP-3 is 0.166 µM; at MMP-9, 1.13 µM; on MMP-2, 0.0635 µM.
Consider `O=C(O)CNC(=O)c1ccccc1CCC(CC(=O)c1ccc(-c2ccc(Cl)cc2)cc1)C(=O)O` (stereo not drawn) [Compound XXIII, α-[2-[2-[[(2-carboxymethyl)amino]carbonyl]phenyl]ethyl]-4'-chloro-γ-oxo-[1,1'-biphenyl]-4-butanoic acid], for which the Ki at MMP-3 is 0.259 µM; on MMP-9 it was 1.59 µM; at MMP-2, 0.096 µM.
